Experimental data: patent US10669268B2, “Bicyclic derivatives” (Hoffmann-La Roche Inc., priority 2012, dated 2020)

Molecular target: ATX (human His-tagged) (Homo sapiens (Human), UniProt Q13822)
Assay: Human ATX enzyme inhibition assay (fluorescence quenching, MR121 substrate)
Assay type: biochemical
Conditions: 30 nM ATX, 1 μM MR121 substrate, 30° C., pH 8.0
Method: Human ATX Enzyme Inhibition Assay
Assay working solutions were made as follows:
Assay buffer (50 mM Tris-HCl, 140 mM NaCl, 5 mM KCl, 1 mM CaCl2, 1 mM MgCl2, 0.01% Triton-X-100, pH 8.0;
MR121 substrate solution: MR121 substrate stock solution (800 μM MR121 substrate in DMSO), diluted to 2-5× final concentration in assay buffer.
10 μL of MR121 substrate solution was added (1 μM final concentration), mixed 30 times and then incubated for 15 minutes at 30° C.

Structure (SMILES)	IC50 [nM]
COc1ccc(/C=C/C(=O)N2CC[C@@H]3CN(C(=O)c4ccc5[nH]nnc5c4)C[C@@H]3CC2)c(C(F)(F)F)c1 [Example 1.28, (E)-1-((3aR,8aS)-2-(1H-benzo[d][1,2,3]triazole-5-carbonyl)octahydropyrrolo[3,4-d]azepin-6(7H)-yl)-3-(4-methoxy-2-(trifluoromethyl)phenyl)prop-2-en-1-one]	6
O=C(/C=C/c1ccccc1C1CC1)N1CC[C@@H]2CN(C(=O)c3ccc4[nH]nnc4c3)C[C@@H]2CC1 [Example 1.29, (E)-1-((3aR,8aS)-2-(1H-benzo[d][1,2,3]triazole-5-carbonyl)octahydropyrrolo[3,4-d]azepin-6(7H)-yl)-3-(2-cyclopropylphenyl)prop-2-en-1-one]	8
O=C(COc1ccccc1OC(F)(F)F)N1CC[C@@H]2CN(C(=O)c3ccc4[nH]nnc4c3)C[C@@H]2CC1 [Example 1.32, 1-[(3aS,8aR)-2-(1H-benzotriazole-5-carbonyl)-octahydro-pyrrolo[3,4-d]azepin-6-yl]-2-(2-trifluoromethoxy-phenoxy)-ethanone]	40
Cc1cc(OCC(=O)N2CC[C@@H]3CN(C(=O)c4ccc5[nH]nnc5c4)C[C@@H]3CC2)c(C(C)C)cc1Cl [Example 1.35, 1-[(3aS,8aR)-2-(1H-benzotriazole-5-carbonyl)-octahydro-pyrrolo[3,4-d]azepin-6-yl]-2-(4-chloro-2-isopropyl-5-methyl-phenoxy)-ethanone]	10
Cc1ccc(OCC(=O)N2CC[C@@H]3CN(C(=O)c4ccc5[nH]nnc5c4)C[C@@H]3CC2)c(C2CCN(C)C2)c1 (stereo partly drawn) [Example 1.36, 1-[(3aS,8aR)-2-(1H-benzotriazole-5-carbonyl)-octahydro-pyrrolo[3,4-d]azepin-6-yl]-2-[4-methyl-2-(1-methyl-pyrrolidin-3-yl)-phenoxy]-ethanone]	7460
O=C(COc1ccc(C(F)(F)F)cc1Cl)N1CC[C@@H]2CN(C(=O)c3ccc4[nH]nnc4c3)C[C@@H]2CC1 [Example 1.38, 1-((3aR,8aS)-2-(1H-benzo[d][1,2,3]triazole-5-carbonyl)octahydropyrrolo[3,4-d]azepin-6(7H)-yl)-2-(2-chloro-4-(trifluoromethyl)phenoxy)ethanone]	10
CC(C)c1cc2c(cc1OCC(=O)N1CC[C@@H]3CN(C(=O)c4ccc5[nH]nnc5c4)C[C@@H]3CC1)C(C)(C)CC2 [Example 1.39, 1-((3aR,8aS)-2-(1H-benzo[d][1,2,3]triazole-5-carbonyl)octahydropyrrolo[3,4-d]azepin-6(7H)-yl)-2-(6-isopropyl-3,3-dimethyl-2,3-dihydro-1H-inden-5-yloxy)ethanone]	7
O=C(COc1cc(Cl)ccc1C(F)(F)F)N1CC[C@@H]2CN(C(=O)c3ccc4[nH]nnc4c3)C[C@@H]2CC1 [Example 1.41, 1-((3aR,8aS)-2-(1H-benzo[d][1,2,3]triazole-5-carbonyl)octahydropyrrolo[3,4-d]azepin-6(7H)-yl)-2-(5-chloro-2-(trifluoromethyl)phenoxy)ethanone]	2
COc1ccc(OCC(=O)N2CC[C@@H]3CN(C(=O)c4ccc5[nH]nnc5c4)C[C@@H]3CC2)c(C(C)(C)C)c1 [Example 1.42, 1-[(3aS,8aR)-2-(1H-benzotriazole-5-carbonyl)-1,3,3a,4,5,7,8,8a-octahydropyrrolo[3,4-d]azepin-6-yl]-2-(2-tert-butyl-4-methoxyphenoxy)ethanone]	7
CC(C)c1cc(C#N)ccc1OCC(=O)N1CC[C@@H]2CN(C(=O)c3ccc4[nH]nnc4c3)C[C@@H]2CC1 [Example 1.43, 4-[2-[(3aS,8aR)-2-(1H-benzotriazole-5-carbonyl)-1,3,3a,4,5,7,8,8a-octahydropyrrolo[3,4-d]azepin-6-yl]-2-oxoethoxy]-3-propan-2-ylbenzonitrile]	14
O=C(CCc1ccc(OCC(F)(F)F)cc1F)N1CC[C@@H]2CN(C(=O)c3ccc4[nH]nnc4c3)C[C@@H]2CC1 [Example 1.45, 1-[(3aS,8aR)-2-(1H-benzotriazole-5-carbonyl)-1,3,3a,4,5,7,8,8a-octahydropyrrolo[3,4-d]azepin-6-yl]-3-[2-fluoro-4-(2,2,2-trifluoroethoxy)phenyl]propan-1-one]	7
O=C(OCc1ccc(OCC(F)(F)F)c(F)c1)N1CC[C@@H]2CN(C(=O)c3ccc4[nH]nnc4c3)C[C@@H]2CC1 [Example 1.46, (3aS,8aR)-2-(1H-benzotriazole-5-carbonyl)-octahydro-pyrrolo[3,4-d]azepine-6-carboxylic acid 3-fluoro-4-(2,2,2-trifluoro-ethoxy)-benzyl ester]	2
O=C(OCc1ccc(OCC(F)(F)F)cc1F)N1CC[C@@H]2CN(C(=O)c3ccc4[nH]nnc4c3)C[C@@H]2CC1 [Example 1.47, (3aS,8aR)-2-(1H-benzotriazole-5-carbonyl)-octahydro-pyrrolo[3,4-d]azepine-6-carboxylic acid 2-fluoro-4-(2,2,2-trifluoro-ethoxy)-benzyl ester]	2
O=C(OCc1ccc(OCC(F)(F)F)cc1)N1CC[C@@H]2CN(C(=O)c3ccc4[nH]nnc4c3)C[C@@H]2CC1 [Example 1.48, (3aS,8aR)-2-(1H-benzotriazole-5-carbonyl)-octahydro-pyrrolo[3,4-d]azepine-6-carboxylic acid 4-(2,2,2-trifluoro-ethoxy)-benzyl ester]	7.5
O=C(OCc1ccc(OC(F)(F)F)cc1)N1C[C@@H]2CN(C(=O)c3cnc4[nH]nnc4c3)C[C@H]2C1 [Example 1.49, (3aS,6aS)-5-(3H-[1,2,3]triazolo[4,5-b]pyridine-6-carbonyl)-hexahydro-pyrrolo[3,4-c]pyrrole-2-carboxylic acid 4-trifluoromethoxy-benzyl ester]	218
O=C(CCc1ccc(OC(F)(F)F)cc1)N1C[C@@H]2CN(C(=O)c3ccc4[nH]nnc4n3)C[C@H]2C1 [Example 1.50, 1-[(3aR,6aR)-5-(1H-triazolo[4,5-b]pyridine-5-carbonyl)-1,3,3a,4,6,6a-hexahydropyrrolo[3,4-c]pyrrol-2-yl]-3-[4-(trifluoromethoxy)phenyl]propan-1-one]	17
O=C(OCc1ccc(OC(F)(F)F)cc1)N1C[C@@H]2CN(C(=O)c3cc4nn[nH]c4cn3)C[C@H]2C1 [Example 1.51, (3aS,6aS)-5-(3H-[1,2,3]triazolo[4,5-c]pyridine-6-carbonyl)-hexahydro-pyrrolo[3,4-c]pyrrole-2-carboxylic acid 4-trifluoromethoxy-benzyl ester]	41
O=C(OCc1ccc(OC(F)(F)F)cc1)N1C[C@@H]2CN(C(=O)c3ccc4[nH]nnc4c3F)C[C@H]2C1 [Example 1.52, (3aS,6aS)-5-(4-fluoro-1H-benzotriazole-5-carbonyl)-hexahydro-pyrrolo[3,4-c]pyrrole-2-carboxylic acid 4-trifluoromethoxy-benzyl ester]	16
O=C(OCc1ccc(OC(F)(F)F)cc1)N1C[C@@H]2CN(C(=O)c3cc(F)c4[nH]nnc4c3)C[C@H]2C1 [Example 1.53, (3aS,6aS)-5-(7-fluoro-1H-benzotriazole-5-carbonyl)-hexahydro-pyrrolo[3,4-c]pyrrole-2-carboxylic acid 4-trifluoromethoxy-benzyl ester]	52
O=C(OCc1ccc(OC(F)(F)F)cc1)N1C[C@@H]2CN(C(=O)c3cc4nn[nH]c4cc3F)C[C@H]2C1 [Example 1.54, (3aS,6aS)-5-(6-fluoro-1H-benzotriazole-5-carbonyl)-hexahydro-pyrrolo[3,4-c]pyrrole-2-carboxylic acid 4-trifluoromethoxy-benzyl ester]	22
O=C(OCc1ccc(OC(F)(F)F)cc1)N1C[C@@H]2CN(C(=O)c3ccc4[nH]nnc4c3Cl)C[C@H]2C1 [Example 1.55, (3aS,6aS)-5-(4-chloro-1H-benzotriazole-5-carbonyl)-hexahydro-pyrrolo[3,4-c]pyrrole-2-carboxylic acid 4-trifluoromethoxy-benzyl ester]	14
O=C(CCc1ccc(OC(F)(F)F)cc1)N1C[C@@H]2CN(C(=O)c3ccc4[nH]nnc4c3F)C[C@H]2C1 [Example 1.59, 1-[(3aR,6aR)-5-(4-fluoro-1H-benzotriazole-5-carbonyl)-hexahydro-pyrrolo[3,4-c]pyrrol-2-yl]-3-(4-trifluoromethoxy-phenyl)-propan-1-one]	6
CCOc1cc(C(=O)N2C[C@@H]3CN(C(=O)[C@@H]4CCc5[nH]nnc5C4)C[C@H]3C2)nc2ccccc12 [Example 1.60, (4-ethoxyquinolin-2-yl)((3aS,6aS)-5-((R)-4,5,6,7-tetrahydro-1H-benzo[d][1,2,3]triazole-5-carbonyl)hexahydropyrrolo[3,4-c]pyrrol-2(1H)-yl)methanone]	12
CCOc1cc(C(=O)N2C[C@@H]3CN(C(=O)c4ccc5[nH]nnc5c4F)C[C@H]3C2)nc2ccccc12 [Example 1.61, (4-ethoxyquinolin-2-yl)((3aS,6aS)-5-(4-fluoro-1H-benzo[d][1,2,3]triazole-5-carbonyl)hexahydropyrrolo[3,4-c]pyrrol-2(1H)-yl)methanone]	21
O=C(OCc1cc(Cl)cc(Cl)c1)N1C[C@@H]2CN(C(=O)c3ccc4[nH]c(=O)oc4c3)C[C@@H]2C1 [Example 2.01, (3aR,6aS)-3,5-dichlorobenzyl 5-(2-oxo-2,3-dihydrobenzo[d]oxazole-6-carbonyl)hexahydropyrrolo[3,4-c]pyrrole-2(1H)-carboxylate]	5
O=C(/C=C/c1ccc(OC(F)(F)F)cc1)N1CC[C@@H]2CN(C(=O)c3ccc4[nH]c(=O)oc4c3)C[C@@H]2CC1 [Example 2.02, 6-{(3aS,8aR)-6-[(E)-3-(4-trifluoromethoxy-phenyl)-acryloyl]-octahydro-pyrrolo[3,4-d]azepine-2-carbonyl}-3H-benzooxazol-2-one]	6
